Results taken from patent US20260042764A1, “COMPOSITIONS AND METHODS FOR INHIBITION OF KRAS” (TheRas, Inc., priority 2022, published 2026).
Where two headings read alike, the source gives them in different places.

What was measured:
[1] = target: T1, Avi-KRAS G12C (2-169) GTP/RAF1 RBD-3xFLAG (51-131) (Homo sapiens, UniProt P01116, G12C); experiment: Raf1-KRAS G12C-GTP disruption HTRF assay (Biological Example 3); type: binding; conditions: KRAS G12C, GTP-loaded
T1 construct: Avi-KRAS G12C (2-169)
T1 sequence (P01116 2-169 isoform P01116-2 G12C): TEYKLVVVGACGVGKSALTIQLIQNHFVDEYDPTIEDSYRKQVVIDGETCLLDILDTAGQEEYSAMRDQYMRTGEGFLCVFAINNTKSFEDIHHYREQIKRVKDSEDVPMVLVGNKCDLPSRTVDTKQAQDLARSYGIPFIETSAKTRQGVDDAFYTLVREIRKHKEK
In short: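 Compounds were titrated 10-point, 3-fold from 30 μM against preformed KRAS-GTP:RAF1 RBD (51-131) complexes at 50 nM, using KRAS 2-169 as WT, G12C, G12D or G12V. After 1 h at room temperature in Tris pH 7.5 buffer with MgCl2 and 10% DMSO, time-resolved fluorescence was read. Results are percent activity versus DMSO.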

[2] = test system: AsPC-1 cells (KRAS G12D); experiment: Cell-based pERK HTRF assay in AsPC-1 cells (Biological Example 5)
Method: (§1) Biological Example 5: Cell-based PERK HTRF assay in AsPC-1, SW1900, HPAC, Capan-2, RKN, H358, HCT116, KP-2, H1573, A549, MKN1, and HT1080 cells
(§2) The inhibition of ERK phosphorylation, as measured using the HTRF Advanced Phospho-ERK 1/2 (Thr202/Tyr204) Detection Assay kit (Perkin Elmer), was used to determine the effectiveness of test compounds in disrupting KRAS-driven protein/effector signaling in cells.
(§3) On day 1, cells were seeded into 96-well plates at 2.5×10^4 cells/well in 100 μL of complete growth media supplemented with 10% fetal bovine serum (FBS) and incubated at 37° C., in the presence of 5% CO2.
(§4) On day 2, cells were treated with compounds diluted in DMSO at 0.25% final DMSO concentration. Compounds were dosed in a 9-point concentration curve with three-fold dilution between concentrations. Cells were incubated in the presence of compound for two hours at 37° C. Following this treatment period, cells were harvested by aspirating the media, adding 40 μL of kit-supplied 1x lysis buffer per well, and shaking for 30 minutes at 250 rpm at room temperature.
(§5) Following cell lysis, samples were homogenized by pipetting up and down twenty times and 16 μL of cell lysate per well was transferred from the 96-well cell culture plate to two wells of a 384-well detection plate. A complete detection buffer was prepared by diluting D2 and Eu Cryptate antibodies 1:20 in kit-provided detection solution, 4 μL of complete detection buffer was then added to each well with lysate. Plates were incubated with gentle rocking for 24 hours at 4° C.
(§6) Following this incubation period, plates were centrifuged at 500×g for one minute and analyzed on a CLARIOstar plate reader. Data was imported into Microsoft Excel and the signal from the 665 nm channel was divided by the signal from the 620 nm channel. % pERK was calculated as: […]
(§7) Data was imported to the Prism software package (Graphpad) and EC50 values were calculated using the log (inhibitor) vs, response—variable slopc (Four parameters) model.

[3] = test system: HT1080 cells (NRAS); experiment: Cell-based pERK HTRF assay in HT1080 cells (Biological Example 5); conditions: Homo sapiens, HT-1080
Method: as §1, §2, §3, §4, §5, §6, §7

[4] = test system: A549 cells (KRAS G12S); experiment: Cell-based pERK HTRF assay in A549 cells (Biological Example 5); conditions: Homo sapiens
Method: as §1, §2, §3, §4, §5, §6, §7

[5] = test system: H1573 cells (KRAS G12A); experiment: Cell-based pERK HTRF assay in H1573 cells (Biological Example 5); conditions: Homo sapiens, NCI-H1573
Method: as §1, §2, §3, §4, §5, §6, §7

[6] = test system: HCT116 cells (KRAS G13D); experiment: Cell-based pERK HTRF assay in HCT116 cells (Biological Example 5)
Method: as §1, §2, §3, §4, §5, §6, §7

[7] = test system: A549 cells (KRAS G12S); experiment: 3D Cell viability assay in A549 cells (Biological Example 6); type: cell-based; conditions: Homo sapiens; A549 (KRAS G12S) spheroids, 72 hours
Method: Biological Example 6: 3D Cell viability assay in AsPC-1, SW1900, HPAC, Capan-2, RKN, H358, HCT116, KP-2, H1573, A549, MKN1, and HT1080 cells
The inhibition of cellular viability as a result of test compound treatment in a spheroid assay was measured using the CellTiter-Glow 3D Cell Viability Assay (Promega).
On Day 1, 1000 cells per well were seeded in 150 μL of complete growth media supplemented with 10% fetal bovine serum (FBS) and incubated at 37° C., in the presence of 5% CO2 in 96-well ultra-low attachment microplates (Corning) for 48 hours undisturbed to allow spheroids to form.
Following spheroid formation, cells were treated with compounds diluted in DMSO at 0.25% final DMSO concentration. Compounds were dosed in a 9-point concentration curve with three-fold dilution between concentrations. Cells were incubated in the presence of compound for 72 hours at 37° C., in the presence of 5% CO2.
Following this incubation period, the kit-provided CTG reagent was allowed to equilibrate for 30 minutes at room temperature, 150 μL of equilibrated CTG reagent was added to each well, and the plate was sealed before shaking at 250 rpm for 10 minutes at room temperature to lyse the cells, 150 μL of lysate per well was transferred to a 96-well plate and luminescence was read on a CLARIOstar plate reader.
Data was imported into the Prism software package (Graphpad) and EC50 values were calculated using the log (inhibitor) vs, response—variable slope (Four parameters) model.

[8] = Homo sapiens, ASPC1, AsPC-1 (KRAS G12D) cells

IC50 [1] | IC50 [2, 8] | IC50 [3] | Structure (SMILES) | further results
≤ 100 nM | ≤ 100 nM |  | CCN(c1nc(OC[C@@]23CCCN2C[C@H](F)C3)nc2c(F)c(-c3ccc(F)c4sc(N)c(C#N)c34)c(C(F)(F)F)cc12)[C@H]1CC(=O)N2CCC[C@@H]12 (atropisomer, axis not shown; (aS)) [Compound 697, 2-amino-4-((S)-4-(ethyl((1S,7aS)-3-oxohexahydro-1H-pyrrolizin-1-yl)amino)-8-fluoro-2-(((2R,7aS)-2-fluorotetrahydro-1H-pyrrolizin-7a(5H)-yl)methoxy)-6-(trifluoromethyl)quinazolin-7-yl)-7-fluorobenzo[b]thiophene-3-carbonitrile] | 
≤ 100 nM | ≤ 100 nM |  | CCN(c1nc(OC[C@@]23CCCN2C[C@H](F)C3)nc2c(F)c(-c3ccc(F)c4sc(N)c(C#N)c34)c(C(F)(F)F)cc12)[C@H]1CCN(C(=O)N2CC(F)C2)C1 (atropisomer, axis not shown) [Compound 606] | 
 | ≤ 100 nM | > 1000 nM | CN(Cc1cccnc1N)c1nc(OC[C@@]23CCCN2C[C@H](F)C3)nc2c(F)c(-c3ccc(F)c4sc(N)c(C#N)c34)c(C(F)(F)F)cc12 [Compound 390] | IC50 [4]: ≤ 100 nM
 |  | > 1000 nM | CCN(c1nc(OC[C@@]23CCCN2C[C@H](F)C3)nc2c(F)c(-c3ccc(F)c4sc(N)c(C#N)c34)c(Cl)cc12)[C@@H]1CCN(C(=O)C2CC2)[C@@H]1C [Compound 337] | IC50 [5]: ≤ 100 nM; IC50 ([6]; Homo sapiens, HCT-116): ≤ 100 nM; IC50 [4]: 100 to 1000 nM; IC50 [7]: ≤ 100 nM
≤ 100 nM | ≤ 100 nM |  | C/C=C/C(=O)N1CC[C@H](N(CC)c2nc(OC[C@@]34CCCN3C[C@H](F)C4)nc3c(F)c(-c4ccc(F)c5sc(N)c(C#N)c45)c(C(F)(F)F)cc23)C1 (atropisomer, axis not shown) [Compound 674] | 
100 to 1000 nM | ≤ 100 nM |  | CCN(c1nc(OC[C@@]23CCCN2C[C@H](F)C3)nc2c(F)c(-c3ccc(F)c4sc(N)c(C#N)c34)c(C(F)(F)F)cc12)[C@H]1C[C@H](C)N(C(=O)OC)C1 (atropisomer, axis not shown) [Compound 704] | 
 |  |  | N#Cc1c(N)sc2c(F)ccc(-c3c(C(F)(F)F)cc4c(N5CC6CC5CO6)nc(OC[C@@]56CCCN5C[C@H](F)C6)nc4c3F)c12 (some centres unmarked) [Compound 147] | IC50 [7]: ≤ 100 nM
100 to 1000 nM | ≤ 100 nM |  | CCN(c1nc(OC[C@@]23CCCN2C[C@H](F)C3)nc2c(F)c(-c3ccc(F)c4sc(N)c(C#N)c34)c(C(F)(F)F)cc12)[C@H]1C[C@H](C)N(C(=O)N2CC(OC)C2)C1 (atropisomer, axis not shown) [Compound 764] | 
 |  | > 1000 nM | N#Cc1c(N)sc2c(F)ccc(-c3c(C(F)(F)F)cc4c(N5CCC[C@@H](O)C5)nc(OC[C@@]56CCCN5C[C@H](F)C6)nc4c3F)c12 [Compound 234] | IC50 [5]: ≤ 100 nM; IC50 ([6]; Homo sapiens, HCT-116): ≤ 100 nM; IC50 [4]: ≤ 100 nM; IC50 [7]: ≤ 100 nM
100 to 1000 nM |  |  | CCN(c1nc(OCC23CCCN2CC(F)C3)nc2c(F)c(-c3ccc(F)c4sc(N)c(C#N)c34)c(C(F)(F)F)cc12)C1CC(C)N(C(=O)C2CC2(F)F)C1 (centres unmarked) [Compound 732] | IC50 [6]: ≤ 100 nM
 |  | > 1000 nM | CCC(=O)N1CC[C@@H](N(C)c2nc(OC[C@@]34CCCN3C[C@H](F)C4)nc3c(F)c(-c4ccc(F)c5sc(N)c(C#N)c45)c(C(F)(F)F)cc23)[C@H]1C [Compound 260] | IC50 [5]: ≤ 100 nM; IC50 ([6]; Homo sapiens, HCT-116): ≤ 100 nM; IC50 [4]: ≤ 100 nM; IC50 [7]: ≤ 100 nM
 |  | > 1000 nM | N#Cc1c(N)sc2c(F)ccc(-c3c(C(F)(F)F)cc4c(N5CCOCC5)nc(OC[C@@]56CCCN5C[C@H](F)C6)nc4c3F)c12 (single isomer, unassigned) [Compound 198] | IC50 [5]: ≤ 100 nM; IC50 ([6]; Homo sapiens, HCT-116): ≤ 100 nM; IC50 [4]: 100 to 1000 nM; IC50 [7]: ≤ 100 nM
100 to 1000 nM | ≤ 100 nM |  | C[C@H]1Cn2nc(C(=O)N(C)C)cc2CN1c1nc(OC[C@@]23CCCN2C[C@H](F)C3)nc2c(F)c(-c3ccc(F)c4sc(N)c(C#N)c34)c(C(F)(F)F)cc12 (atropisomer, axis not shown) [Compound 610] | 
 |  | > 1000 nM | C[C@@H]1[C@H](N(C)c2nc(OC[C@@]34CCCN3C[C@H](F)C4)nc3c(F)c(-c4ccc(F)c5sc(N)c(C#N)c45)c(C(F)(F)F)cc23)CCN1C(=O)C1CC1 [Compound 258] | IC50 [5]: ≤ 100 nM; IC50 ([6]; Homo sapiens, HCT-116): ≤ 100 nM; IC50 [4]: ≤ 100 nM; IC50 [7]: ≤ 100 nM
 |  |  | CCN(c1nc(OC[C@@]23CCCN2C[C@H](F)C3)nc2c(F)c(-c3ccc(F)c4sc(N)c(C#N)c34)c(C(F)(F)F)cc12)[C@H]1C[C@H](C)N(C(=O)[C@@H]2CC2(F)F)C1 (atropisomer, axis not shown) [Compound 751] | IC50 ([6]; Homo sapiens, HCT-116): ≤ 100 nM
 |  |  | Cc1c(C(=O)N(C)C)nn2c1CN(c1nc(OC[C@@]34CCCN3C[C@H](F)C4)nc3c(F)c(-c4ccc(F)c5sc(N)c(C#N)c45)c(C(F)(F)F)cc13)CC2 (atropisomer, axis not shown; (aS)) [Compound 590, 5-((S)-7-(2-amino-3-cyano-7-fluorobenzo[b]thiophen-4-yl)-8-fluoro-2-(((2R,7aS)-2-fluorotetrahydro-1H-pyrrolizin-7a(5H)-yl)methoxy)-6-(trifluoromethyl)quinazolin-4-yl)-N,N,3-trimethyl-4,5,6,7-tetrahydropyrazolo[1,5-a]pyrazine-2-carboxamide] | IC50 ([2]; AsPC-1 (KRAS G12D) cells): ≤ 100 nM
 | ≤ 100 nM |  | CCN(c1nc(OC[C@@]23CCCN2C[C@H](F)C3)nc2c(F)c(-c3ccc(F)c4sc(N)c(C#N)c34)c(C(F)(F)F)cc12)[C@H]1CCN(C(=O)C2CC2)[C@@H]1C (atropisomer, axis not shown) [Compound 579] | 
 | 100 to 1000 nM | > 1000 nM | CCN(c1nc(OC[C@@]23CCCN2C[C@H](F)C3)nc2c(F)c(-c3ccc(F)c4sc(N)c(C#N)c34)c(C(F)(F)F)cc12)[C@H]1C[C@H](C)N(C(C)=O)C1 [Compound 463] | 
 | ≤ 100 nM |  | CCN(c1nc(OC[C@@]23CCCN2C[C@H](F)C3)nc2c(F)c(-c3ccc(F)c4sc(N)c(C#N)c34)c(C(F)(F)F)cc12)[C@H]1CCN(C(=O)c2ncco2)C1 (atropisomer, axis not shown) [Compound 584] | 
100 to 1000 nM | ≤ 100 nM |  | CCN(c1nc(OC[C@@]23CCCN2C[C@H](F)C3)nc2c(F)c(-c3ccc(F)c4sc(N)c(C#N)c34)c(C(F)(F)F)cc12)[C@H]1C[C@H](COC)N(C(=O)C2CC2)C1 (atropisomer, axis not shown) [Compound 696] | 
 | ≤ 100 nM |  | CCN(c1nc(OC[C@@]23CCCN2C[C@H](F)C3)nc2c(F)c(-c3ccc(F)c4sc(N)c(C#N)c34)c(C(F)(F)F)cc12)[C@H]1C[C@@H](C)N(C(=O)C2COC2)C1 (atropisomer, axis not shown) [Compound 586] | 
 |  |  | CCN(c1nc(OCC23CCCN2CC(F)C3)nc2c(F)c(-c3ccc(F)c4sc(N)c(C#N)c34)c(C(F)(F)F)cc12)C1CC(C)N(C(=O)N2CC(F)C2)C1 (centres unmarked) [Compound 759] | IC50 ([2]; AsPC-1 (KRAS G12D) cells): ≤ 100 nM
